Article PMC12241370, “Anti-biofilm peptides can rescue fluconazole and amphotericin B efficacies against Candida albicans” (Scientific Reports, 2025)

Assays:
[1] = system: C. albicans laboratory strain and clinical isolates; test: Biofilm formation, crystal violet assay; assay type: cell-based, Candida albicans
Protocol: In order to evaluate the antifungal effects of the Pom-1 derivatives combined with amphotericin B or fluconazole on biofilm formation, a crystal violet assay was performed[84],[85]. For this, 2.5 × 10^4 yeast cells/mL were incubated in 200 µL of RPMI-1640 medium supplemented with amphotericin B, fluconazole and Pom-1 to Pom-1 F in flat-bottomed polystyrene microtiter plates with 96 wells for 24 h at 37 °C without agitation. Subsequently, the planktonic phase was removed, the remaining cells attached to the wells were washed twice with 200 µL of demineralized water and exposed to 200 µL of 0.1% (w/v) crystal violet solution for 15 min. Afterwards, the solution was removed and the cells were washed again twice with 200 µL of demineralized water and the plates were left to dry for 24 h at 25 °C. To dissolve the stain, 200 µL of 30% acetic acid was added and transferred to a new plate after 15 min. […] By comparing the resulting data against the untreated controls, the efficacy of the agents could be assessed.

[2] = system: C. albicans laboratory strain and clinical isolates; test: Resazurin reduction viability assay of planktonic cells; assay type: cell-based, Candida albicans; conditions: for strains whose viability could not be reduced to zero: 1x ED: 2 µg/mL amphotericin B, 8 µg/mL fluconazole
Protocol: KG, Nümbrecht, Germany) at 37 °C with shaking at 900 rpm on an Eppendorf shaker. The quantification of viable yeast cells was carried out using a Resazurin-Reduction-Assay[86]. Accordingly, the cells were exposed to 20 µL of a 0.15 mg/mL resazurin solution for 2 h and subsequently the amount of converted resorufin was determined with fluorescence measurements at an excitation wavelength of 535 and an emission of 595 nm with a Tecan infinite F200 microplate reader (Tecan Group Ltd., Männedorf, Switzerland).

[3] = system: C. albicans clinical isolate 23; test: Resazurin viability assay of clinical isolate 23; assay type: cell-based, Candida albicans; conditions: antifungal alone at 1x ED
Protocol: The viability of C. albicans cells was assessed following the guidelines of the Clinical and Laboratory Standards Institute (M27-A3)[86]. Accordingly, 2.5 × 10^4 yeast cells/mL were cultured in 200 µL of RPMI-1640 medium in the presence of peptide (Pom-1 to Pom-1 F) and amphotericin B or fluconazole in different concentrations (0.1x ED/MBIC and 0.5x ED/MBIC) in flat-bottomed polystyrene microtiter plates with 96 wells (Sarstedt AG and Co. KG, Nümbrecht, Germany) at 37 °C with shaking at 900 rpm on an Eppendorf shaker. The quantification of viable yeast cells was carried out using a Resazurin-Reduction-Assay[86]. Accordingly, the cells were exposed to 20 µL of a 0.15 mg/mL resazurin solution for 2 h and subsequently the amount of converted resorufin was determined with fluorescence measurements at an excitation wavelength of 535 and an emission of 595 nm with a Tecan infinite F200 microplate reader (Tecan Group Ltd., Männedorf, Switzerland).
Figure S4. Inherent resilience to aggregation by isolate 23 and marginal reduction of viability by further raised concentrations of antifungal and peptide combinations. (A) Microscopic analysis using a Leica DMi8 coded (Leica Microsystems CMS GmbH, Wetzlar, Germany) microscope of C. albicans laboratory strain and clinical isolate 23 with and without treatment with Pom-1. The pictures were taken after an incubation time of 2 h. […]

[4] = system: C. albicans reference strain; test: Permeabilization assay with fluorescent dyes of increasing size; assay type: cell-based, Candida albicans; conditions: FITC, propidium iodide, ATTO 488 alkyne, rhodamine phalloidin; Pom-1 or Cm-p5 at 2.5 µg/mL and 10 µg/mL, 2 h, 37 °C; Triton X-100 0.2% (w/v) solution, last 10 min; fluorescence; triplicate
Protocol: For this, 2.5 × 10^4 cells/mL of the C. albicans reference strain were incubated in 200 µL of RPMI-1640 medium supplemented with either Pom-1 or Cm-p5 at final concentrations of 2.5 µg/mL and 10 µg/mL and incubated for 2 h at 37 °C. For the positive control, 100 µL of a 0.2% (w/v) solution of Triton X-100 was added 10 min prior to the end of the 2 h incubation time and for the negative control, no agent was added (untreated). After incubation, the tubes were centrifuged at 11,000 ×g and the supernatant was discarded. Afterwards, the cells were washed with once with PBS and after addition of 5 µL dye and 195 µL PBS (final concentration of dye: 5 µL/mL) the cell suspension was centrifuged at 11,000 ×g for 2 min. […] Subsequently the yeast cells were washed 3x with PBS, resuspended in 200 µL of PBS and pipetted into flat-bottomed polystyrene microtiter plates with 96 wells (Sarstedt AG and Co. KG, Nümbrecht, Germany) and fluorescence measurements were conducted at an excitation wavelength of 498 nm (FITC), 535 nm (propidium iodide), 500 nm (Atto488), and 540 nm (rhodamine phalloidin) and an emission of 517 nm (FITC), 617 nm (propidium iodide), 520 nm (Atto488), 565 nm (rhodamine phalloidin) with a Tecan infinite F200 microplate reader (Tecan Group Ltd., Männedorf, Switzerland). […]

[5] = system: human dermal fibroblasts (HDF); test: Resazurin viability assay for cell culture (HDF); assay type: cell-based; conditions: detergent cell lysis control
Protocol: (§1) Adenocarcinomic human alveolar basal epithelial cells (A549) (purchased from the ATCC, Manassas, VA, USA, CRM-CCL-185)[67] and human dermal fibroblasts (HDFs) (purchased from tebu-bio GmbH, Offenbach, Germany) were used[68] for the experiments. Cultivation was conducted in DMEM with FBS (10% (w/v), 15% (w/v)), MEM NEAAs (1% (w/v)), and penicillin–streptomycin (100 U/mL, 1% (w/v)) at 37 °C in an incubator containing 5% CO2. To detect the viability of human cells, a resazurin reduction assay was performed. For this, 2 × 10^4 cells per well of a 96-well plate were incubated in 200 µL DMEM with additives at 37 °C and 5% CO2. After removing the medium, 100 µL of the medium and 100 µL of a peptide/antifungal solution (2.5 µg/mL, 25 µg/mL) were added. After incubation for 24 h at 37 °C and 5% CO2, 20 µL of a resazurin solution (0.15 mg/mL) were added into each well, and the cells were incubated again for 24 h at 37 °C and 5% CO2. Fluorescence measurement (excitation wavelength—535 nm, emission wavelength—595 nm) of the converted resorufin was then performed using a Tecan Infinite F200 microplate reader (Tecan Group Ltd., Männedorf, Switzerland).

[6] = system: A549 cells; test: Resazurin viability assay for cell culture (A549); assay type: cell-based, human; conditions: detergent cell lysis control
Protocol: as §1

| Molecule | strains with complete biofilm inhibition (death count) ([1]; amphotericin B only, 0.1x ED) | strains with complete biofilm inhibition (death count) ([1]; antifungal only, 0.5x ED) | strains with complete biofilm inhibition ([1]; antifungal only, 0.5x ED, 21 strains) [%] | strains with complete inhibition of biofilms ([1]; antifungal only, 1x ED (2 µg/mL), 21 strains) [%] | strains with complete inhibition of biofilms (death count) ([1]; antifungal only, 1x ED (2 µg/mL), crystal violet, 24 h, 37 °C, triplicate) | strains whose viability could not be reduced to zero [2] | strains killed completely ([2]; amphotericin B only, 0.5x ED, planktonic cells, 28 strains) [%] | isolates against which fully active (zero viability) ([2]; amphotericin B only, 1x ED (2 µg/mL), planktonic cells, 28 strains) [%] | isolates against which fully active (death count) ([2]; amphotericin B only, 1x ED (2 µg/mL), planktonic cells, resazurin, triplicate) | effect on isolate 23 [3] | isolates with viability reduction (death count) ([2]; fluconazole only, 0.1x ED) | ratio of completely killed C. albicans isolates ([2]; fluconazole only, 1x ED (8 µg/mL), 28 strains) [%] | permeabilization of C. albicans cells for fluorescent dyes [4] | cell viability of HDF cells [5] | cell viability of A549 cells [6] |
| --- | --- | --- | --- | --- | --- | --- | --- | --- | --- | --- | --- | --- | --- | --- | --- |
| C[C@@H]1[C@H](O)[C@@H](C)/C=C/C=C/C=C/C=C/C=C/C=C/C=C/[C@H](O[C@@H]2O[C@H](C)[C@@H](O)[C@H](N)[C@@H]2O)C[C@@H]2O[C@](O)(C[C@@H](O)C[C@@H](O)[C@H](O)CC[C@@H](O)C[C@@H](O)CC(=O)O[C@H]1C)C[C@H](O)[C@H]2C(=O)O [amphotericin B] | totally failed | 2 of 21 | 9.5 | 52 | 11 of 21 | 21 of 28 strains | 7 | 25 | 7 of 28 | unaffected |  |  |  |  |  |
| OC(Cn1cncn1)(Cn1cncn1)c1ccc(F)cc1F [fluconazole] |  |  |  |  |  | 12 of 28 strains |  |  |  | unaffected | 3 isolates of 28 | 57 |  |  |  |
| Triton X-100 |  |  |  |  |  |  |  |  |  |  |  |  | permeabilized Candida cells for all dyes | zero | zero |
